Laboratory results from patent US11090285B2, “Treatment of circadian rhythm disorders” (Vanda Pharmaceuticals Inc., priority 2013, dated 2021).

Assays:
[1] = Tasimelteon exposure with ketoconazole (CYP3A4 inhibitor); assay type: in vivo, human; conditions: single 20 mg dose on fifth day of ketoconazole 400 mg per day vs tasimelteon alone
Experimental: Therefore, in cases where an individual is co-administered a CYP3A4 inhibitor, the dose of tasimelteon administered may be less than if administered alone or in the absence of a CYP3A4 inhibitor.
For example, a pharmaceutical composition providing a dosage equivalent to a daily dosage between about 5 mg and about 15 mg of tasimelteon may be co-administered with a […] inhibitor.

MT2R = target: T1, MT2R (Homo sapiens, UniProt P49286); test: Melatonin receptor affinity, MT2R; assay type: binding
T1 sequence (P49286 1-362): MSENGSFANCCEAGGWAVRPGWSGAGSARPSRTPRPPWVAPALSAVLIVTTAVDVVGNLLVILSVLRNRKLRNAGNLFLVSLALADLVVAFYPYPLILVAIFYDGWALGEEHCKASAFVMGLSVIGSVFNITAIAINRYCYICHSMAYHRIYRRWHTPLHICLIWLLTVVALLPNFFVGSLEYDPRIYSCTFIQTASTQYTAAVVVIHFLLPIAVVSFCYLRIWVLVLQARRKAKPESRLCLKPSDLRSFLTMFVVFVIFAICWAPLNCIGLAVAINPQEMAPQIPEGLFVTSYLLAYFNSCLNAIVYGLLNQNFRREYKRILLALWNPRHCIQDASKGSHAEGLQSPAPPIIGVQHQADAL
Experimental: (§1) Tasimelteon is a white to off-white powder with a melting point of about 78° C. […] Tasimelteon has 2-4 times greater affinity for MT2R relative to MT1R.

[2] = Pharmacokinetics on co-administration of tasimelteon and fluvoxamine; assay type: in vivo, human
Experimental: Twenty-four healthy male or female subjects between the ages of 18 and 55 years of age (inclusive) who were non-smokers with a body mass index (BMI) of ≥18 and ≤35 kg/m2 participated in this open-label, single-sequence study conducted at one site. On day 1, subjects were administered […] of tasimelteon.

[3] = Solubility and pH of saturated solution; assay type: physicochemical
Experimental: as §1

[4] = co-administration of fluvoxamine vs tasimelteon alone

increase of tasimelteon exposure [1]: approximately 54% | greater affinity for MT2R relative to MT1R (MT2R): 2-4 times | CL/F ([2]; Day 1, 5.667 mg tasimelteon alone): 107 ± 555 mL/min | CL/F ([2]; Day 8, 5.667 mg tasimelteon + 50 mg fluvoxamine): 189 ± 155 mL/min | AUC (inf), Geometric Mean Ratio ([2]; Day 8 vs Day 1): 653.36% | CL/F, Geometric Mean Ratio ([2]; Day 8 vs Day 1): 15.31% | Cmax, Geometric Mean Ratio ([2]; Day 8 vs Day 1): 232.74% | t½, Geometric Mean Ratio ([2]; Day 8 vs Day 1): 211.82% | increase of AUC0-inf [2, 4]: approximately 7 fold | increase of Cmax [2, 4]: approximately 2 fold | effect of pH on aqueous solubility [3]: practically unaffected by pH | native pH of a saturated solution in water [3]: 8.5 | solubility in organic solvents ([3]; 95% ethanol, methanol, acetonitrile, ethyl acetate, isopropanol, PEG-300 and PEG-400): very soluble or freely soluble | solubility in water ([3]; water): only slightly soluble
SMILES: CCC(=O)NC[C@@H]1C[C@H]1c1cccc2c1CCO2 (relative stereo) [Tasimelteon, trans-N-[[2-(2,3-dihydrobenzofuran-4-yl)cycloprop-1yl]methyl]propanamide]
